Measurements reported in patent publication US10392392B2, “Substituted imidazo[1,2-B]pyridazines as protein kinase inhibitors” (Tolero Pharmaceuticals, Inc., priority 2011, dated 2019).

Key:
UM-UC-3 cells = assay: Colony formation assay, UM-UC-3; type: cell-based
Protocol: (§1) For shRNA growth experiments, 500 UM-UC-3 cells were seeded in a 12-well plate 48 hours post-transduction and cultured for 8-10 days at 37° C. in 5% CO2. Cells were fixed with 4% paraformaldehyde in PBS, washed twice with PBS, and stained with a crystal violet solution (1% crystal violet, 10% ethanol in water). Stained cells were washed thrice with water, and imaged after drying on a GelCount colony counter (Oxford Optronix Ltd., Oxford, UK). Total staining intensity per well was determined by lysis of cells with 200 μl of Triton X-100 lysis buffer (1% Triton X-100, 50 mM Tris-HCl pH 7.4, 150 mM NaCl, 1 mM EDTA). Lysates (100 μl) from each well were transferred to a clear 96-well plate and absorbance at 560 nm was determined on an Envision microplate reader. IC50 values were determined using GraphPad Prism software. For compound treated PC-3 and UM-UC-3, cells were seeded and stained as above, but were incubated with various concentrations of test compound or DMSO one day after seeding.
(§2) Translational models were also explored for PIM dependency using shRNA knockdown. The UM-UC-3 urinary epithelial bladder carcinoma cell line was used to verify and validate dependency on PIM-1 for growth. […] Reduction of PIM-1 mRNA and growth also were observed using both PIM-1 and PIM-2 shRNA in the androgen-independent prostate carcinoma cell line PC-3 (data not shown).

UM-UC-3 xenograft tumors = assay: Established UM-UC-3 mouse xenograft tumors; type: in vivo; details: oral dosing of 200 mg/kg
From the text: (§3) Male and female Nu/Nu mice were purchased from Harlan Sprague Dawley (Indianapolis, Ind.). Female Nu/Nu mice were used for all xenograft evaluations with the exception of the PC-3 xenografts where male Nu/Nu mice were used. Cell lines were expanded in vitro in complete media, and if adherent were harvested by trypsin-EDTA, centrifuged and resuspended in PBS 1:1 with Matrigel (BD Bioscienes). Cells were inoculated subcutaneously in the right hind flank of mice. […] Tumor volumes and body weights were determined twice a week, and tumor weights were measured at the completion of the translational xenograft studies.

[1] = system: ML-2 cells (wild-type FLT3) xenografts; assay: ML-2 (wild-type FLT3) mouse xenograft; type: in vivo
From the text: (§4) Male and female Nu/Nu mice were purchased from Harlan Sprague Dawley (Indianapolis, Ind.). Female Nu/Nu mice were used for all xenograft evaluations with the exception of the PC-3 xenografts where male Nu/Nu mice were used. Cell lines were expanded in vitro in complete media, and if adherent were harvested by trypsin-EDTA, centrifuged and resuspended in PBS 1:1 with Matrigel (BD Bioscienes). Cells were inoculated subcutaneously in the right hind flank of mice. When tumors reached 100-200 mm^3 by caliper measurement, mice were randomized and dosing of SGI-9481 or vehicle control began and continued every day for 5 days (QD×5) with 2 days off for 18-21 days. Tumor volumes and body weights were determined twice a week, and tumor weights were measured at the completion of the translational xenograft studies.

PC-3 cells = assay: Colony formation assay, PC-3; type: cell-based
Protocol: as §1, §2

22RV1/PIM-1 xenografts = assay: 22RV1/PIM-1 over-expression tumor xenograft; type: in vivo, mouse; details: mice bearing 22RV1 or 22RV1/PIM-1 xenografts
From the text: as §4
(§5) The prostate cancer cell line 22RV1 engineered to over-express PIM-1 as previously described (Mumenthaler, et al, Mol. Cancer Ther., 2009, 8(10)2882-93) was evaluated in vivo. A second model engineered to over-express PIM-2 was established using the NIH-3T3 mouse fibroblast cell line.

PC-3 xenograft tumors = assay: Established PC-3 mouse xenograft tumors; type: in vivo; details: oral dosing of 200 mg/kg
From the text: as §3

[2] = Pharmacokinetic studies of PC-3 tumor-burdened mice; type: in vivo, mouse; details: 200 mg/kg dosing
NIH-3T3/PIM-2 xenografts = assay: NIH-3T3/PIM-2 over-expression tumor xenograft; type: in vivo, mouse; details: mice bearing NIH-3T3 or NIH-3T3/PIM-2 xenografts
From the text: as §4, §5

MOLM-13 = assay: In vitro viability assay, MOLM-13; type: cell-based
Protocol: (§6) Adherent or suspension cancer cell lines were seeded at 2000-5000 cells/well in a 96-well plate, or 1000-2000 cells/well in a 384-well plate. Suspension cells were treated with drug the same day as seeding, while adherent cells were incubated overnight at 37° C. in 5% CO2 prior to drug treatment. All cells were treated for 72 hours, then lysed with ATPlite (Perkin Elmer) and measured on an Envision microplate reader. IC50 values were determined using GraphPad Prism software.
(§7) Over 35 cell lines were tested, and the most sensitive cell lines from various indications were selected and verified by multiple EC50 determinations (FIG. 6). […] Anti-proliferative activity using PIM-2 shRNA against FLT3-ITD driven leukemia lines has been observed (Adam (2006) Cancer Res 66:3828-35 data not shown).

MV-4-11 = assay: In vitro viability assay, MV-4-11; type: cell-based
Protocol: as §6, §7

Compound	colony growth (UM-UC-3 cells)	changes in body weight or gross adverse toxicity (UM-UC-3 xenograft tumors)	tumor growth measured by volume (caliper) and by final tumor weight (UM-UC-3 xenograft tumors)	tumor growth [1]	colony growth (PC-3 cells)	changes in body weight (22RV1/PIM-1 xenografts)	changes in body weight or gross adverse toxicity (PC-3 xenograft tumors)	tumor growth measured by volume (caliper) and by final tumor weight (PC-3 xenograft tumors)	plasma levels [2]	tumor tissue levels [2]	changes in body weight (NIH-3T3/PIM-2 xenografts)	sensitivity of cell line (MOLM-13)	sensitivity of cell line (MV-4-11)
CC(C)(O)[C@H]1CC[C@H](Nc2ccc3ncc(-c4cccc(C(F)(F)F)c4)n3n2)CC1 [Compound 8-31]	reduced	no significant changes	significantly reduced	significant tumor growth inhibition	reduced	No significant changes	no significant changes	significantly reduced	above the in vitro proliferation EC50	above the in vitro proliferation EC50	No significant changes		
CC(C)(O)[C@H]1CC[C@H](Nc2ccc3ncc(-c4cccc(C(F)(F)F)c4)n3n2)CC1 [SGI-9481]												particularly sensitive	particularly sensitive
